The source of these data is the SangsterLogP compilation.

A short description of data set [1]: method code SF-HPLC, from DOI: 10.1002/jps.2600831027, PMID: 7884677. The settings on record: pH 2.0.
A short description of data set [2]: method code SF, from DOI: 10.1002/ps.2780340212. As to conditions: pH 7.0.
Data set [3] in a line: method code SF-RC, from DOI: 10.1111/j.2042-7158.1987.tb06949.x, PMID: 2882008. As to conditions: pH 1.0.
The nature of data set [4]: method code SF-HPLC, from DOI: 10.1016/s0021-9673(01)83534-2.
Assay in data set [5]: not given
This is another data set of the same source.

Assay in data set [6]: not given
This is another data set of the same source.

Assay in data set [7]: not given
This is another data set of the same source.

Data set [8] is described as follows: method code SF-AS, from DOI: 10.1021/jm00299a013, PMID: 5458368.
Assay in data set [9]: not given
The source holds these as a separate data set.

Data set [10] is described as follows: method code SF-AS, from Holmes, L.; Lough, E. (1976). Effect of Intramolecular Hydrogen Bonding on Partition Coefficients [Technical Note]. Defence Research Establishment Suffield.
Data set [11] in a line: method code SF-AS, from DOI: 10.1016/0009-2797(77)90097-7, PMID: 407012. The settings on record: pH 7.0.
A short description of data set [12]: method code SF, from DOI: 10.1016/j.tca.2004.05.019.
Data set [13] in a line: from Rich, R. (1990). Partition coefficients of quinones and their relation to biochemical reactivity. In Lenaz, G. (Ed.), Highlights in Ubiquinone Research: Proceedings of the International Symposium, ….
Assay in data set [14]: not given
The source holds these as a separate data set.

Assay in data set [15]: not given
The source holds these as a separate data set.

Assay in data set [16]: not given
The source holds these as a separate data set.

The nature of data set [17]: from Bazaco, J.; Coca, C. (1989). Relation between the partition coefficient (Log Pow) and capacity factor (Log k') derived from reversed-phase HPLC of a series of benzaldehyde derivatives. Ciencia e ….
A short description of data set [18]: method code SF-HPLC, from DOI: 10.1002/jps.2600780218, PMID: 2715940. The settings on record: pH 7.4.
Data set [19] is described as follows: method code SF-HPLC, from DOI: 10.1002/jat.2550130210, PMID: 8486911. As to conditions: pH 13.0.
Data set [20] in a line: method code SF-CR, from DOI: 10.1248/cpb.21.2417, PMID: 4779830. The settings on record: pH 6.0.
Data set [21] in a line: method code SF-MS, from DOI: 10.1016/j.fluid.2014.01.017. The settings on record: pH 7.6.
Data set [22] in a line: method code SF-RC, from DOI: 10.1002/ps.2780300102. The settings on record: pH 1.0.
Assay in data set [23]: not given
This is another data set of the same source.

Data set [24] is described as follows: method code SF-AS, from DOI: 10.1016/0378-5173(80)90117-9.
Data set [25] can be described thus: method code SF-RC, from DOI: 10.1021/jm201482p, PMID: 22339166. The settings on record: pH 6.8.
Assay in data set [26]: not given
This is another data set of the same source.

The nature of data set [27]: method code SF, from PMID: 2704. As to conditions: pH 1.0.
Assay in data set [28]: not given
This is another data set of the same source.

A short description of data set [29]: method code SF-AS, from DOI: 10.1248/cpb.36.1393.
Assay in data set [30]: not given
The source holds these as a separate data set.

Data set [31] is described as follows: method code SF-AS, from KuchaÅ™, M.; Rejholec, V.; Miller, V. (1985). Chromatographically determined lipophilicity and intramolecular interactions of bioactive compounds. Pharmacochemistry Library, 8, 321-331. As to conditions: pH 3.4.
A short description of data set [32]: method code SF, from Brown, J.; Yu, N.; Cory, M.; Bicknell, R.; Taylor, D. (1978). In vivo evaluation of the radiosensitizing and cytotoxic properties of newly synthesized electron-affinic drugs. 3, 206-211.
Data set [33] can be described thus: method code SF-GLC, from DOI: 10.1002/jps.2600600712, PMID: 4398902.
Data set [34] can be described thus: method code SF-AS, from DOI: 10.1111/j.1440-1681.1976.tb00621.x, PMID: 10116.
Data set [35] is described as follows: method code SF-HPLC, from DOI: 10.1002/ps.2780190203. As to conditions: pH 1.0.

The structures appear in SMILES notation.

Usually logD stands for the decadic logarithm of the distribution of all forms, ionised or not, between an organic phase and buffer at a given pH. Read a low logD as a more hydrophilic compound. In turn, `NC(=O)Cc1ccc(C(=O)O)cc1` showed a logD in data set [1] of 0.3.

Molecule `CCCCc1c(C)[nH]c(NCC)nc1=O` showed a log distribution coefficient (logD) in [2] of 2.2.

The logP is the decadic logarithm of the partition coefficient of the neutral form, usually between octanol and water. On to `S=C=Nc1cccc2c(N=C=S)cccc12`, for which the logP amounted to 4.43.

For the molecule `CC(=O)Nc1ccc(C(=O)O)c(O)c1`, in data set [3], the logD turned out to be 1.62.

`CC(C)=NNc1ccc([N+](=O)[O-])cc1[N+](=O)[O-]` came in with a logP in data set [4] of 3.05.

As for `COc1cccc(C(=O)O)c1OC`, in [5], the logP amounted to 1.94.

Molecule `O=C(O)CCc1ccc(I)cc1` showed a logP in data set [6] of 2.81.

For the molecule `CC(C)c1ccc(C(=O)O)cc1`, the lipophilicity (logP) in [7] is 3.24.

In [8], `Cc1ncc([N+](=O)[O-])n1CCS(C)(=O)=O` gave a logP of -0.82.

Turning to `O=C(O)Cc1ccc(Cl)c(Cl)c1`, the logP in data set [9] was determined as 2.9.

Regarding `O=C(O)Cc1cccc(I)c1`, the logD in data set [3] was found to be 2.49.

Regarding `CCC(=O)c1ccccc1O`, the logP in data set [10] was 2.54.

In turn, `CN(CO)c1nc(N(C)CO)nc(N(C)CO)n1` had a logD in [11] of 0.4.

`Cc1ssc(=S)c1CCC(=O)O` gave a logP in [12] of 2.04.

The molecule `COc1c(O)ccc(O)c1OC` showed a logP in [13] of 0.61.

As to `O=[N+]([O-])c1ccc(Oc2c(Cl)cc(Cl)cc2Cl)cc1`, the logP in [14] was 4.97.

Turning to `CSc1nc(N=[N+]=[N-])nc(NC(C)C)n1`, the logP in [15] is 3.27.

Regarding `CON(C)C(=O)Nc1ccc(Cl)c(Cl)c1`, the logP in data set [16] was 3.

For `COc1ccc(C=O)cc1OC`, the logP in data set [17] is 1.22.

As to `CC(=O)Nc1ccc(C#N)cc1`, the logD in data set [18] stood at 1.36.

As for `CCCCCC(C)(C)N`, the logD in data set [19] stood at 2.19.

In data set [10], `CCC(=O)c1ccc(O)cc1` displayed a log partition coefficient (logP) of 2.03.

As to `CN(c1ccccn1)S(=O)(=O)c1ccc(N)cc1`, the logD in [20] stood at 1.3.

In data set [21], `CCCCCC/C=C/C=O` gave a logD of 3.11.

In turn, `O=C(O)Cc1ccc(Cl)cc1` registered a logD in [22] of 2.2.

As for `CCOCC(O)Cn1ccnc1[N+](=O)[O-]` (configuration not stated), the logP in [23] was -0.07.

In data set [5], `CCCOC(=O)c1ccccc1` showed a logP of 3.23.

Take `O=C(O)Cn1c(=O)sc2cccc(Cl)c21`: the logP in [9] was 2.21.

The molecule `COc1ccc(O)cc1` had a logP in [24] of 1.57.

On to `CC(C)(C)c1cc(C(C)(C)C)c2c(c1F)CO[P@@](=O)(OC[C@H]1O[C@@H](n3cc(I)c(=O)[nH]c3=O)C[C@@H]1O)O2`, for which the logD in data set [25] stood at 2.23.

Take `N#CCc1ccccc1`: the logP in data set [26] worked out at 1.47.

In the case of `O=Cc1ssc(=S)c1CCC(=O)O`, the logP in data set [12] was 2.73.

With `N#CCc1ccc(C(=O)O)cc1`, in [1], the logD was determined as 1.18.

On to `COC(=O)COc1ccccc1C`, for which the logD in [27] was 2.08.

`C/C=C/OCC(O)Cn1ccnc1[N+](=O)[O-]` (configuration not stated) displayed a logP in data set [23] of 0.28.

`O=C1OC(=O)c2c(Cl)c(Cl)c(Cl)c(Cl)c21` came in with a logP in data set [14] of 3.09.

In data set [28], `CCn1ccc(=O)c(O)c1` returned a logP of -0.4.

Turning to `Clc1ccc2c(Cl)ccnc2c1`, in [29] (pH 7.4), the logD was 3.57.

`COCCCNc1nc(NC(C)C)nc(SC)n1`: the logP in data set [15] amounted to 2.96.

`CON=C(C#N)C(=O)N[C@@H](CSC)C(=O)O` registered a logP in [30] of 0.52.

Consider `CCCCC/C=C\C=O`, for which, in data set [21], the logD was 2.38.

As to `COc1cccc(C=O)c1`, the logP in [17] amounted to 1.71.

Take `CN(C)S(=O)(=O)c1ccc(N)cc1`: the logD in data set [20] stood at 0.67.

In [29] (pH 2.8), `[O-][n+]1ccc(Nc2ccc(O)cc2)c2ccc(Cl)cc21` had a logD of 1.23.

In the case of `S=C=Nc1ccc(N=C=S)cc1`, the logP was determined as 2.8.

`O=C(O)CNC(=O)c1ccccc1I` registered a logP in [6] of 1.08.

As for `CC(=O)N(C)c1ccc([N+](=O)[O-])cc1`, the logD in data set [18] worked out at 0.91.

Molecule `O=C(O)CCCC(=O)c1ccccc1` displayed a logD in data set [31] of 1.49.

Take `CCS(=O)(=O)CCn1ccnc1[N+](=O)[O-]`: the logP in [32] is -0.58.

In [33], `O=C1CCCCCCCN1` returned a logP of 0.67.

`CS(=O)(=O)c1ccc(CC(=O)O)cc1` registered a logD in data set [22] of 0.06.

`CCCCCCCCN` displayed a logD in data set [19] of 3.3.

Consider `COC(=O)c1cc([N+](=O)[O-])cc([N+](=O)[O-])c1`, for which the logP in data set [4] was 1.84.

Regarding `CCC(CC)(OC)C(=O)NC(N)=O`, the logP in data set [34] amounted to 0.96.

Turning to `CCCCn1ccc(=O)c(O)c1`, the logP in [28] is 0.72.

`CC1=C(C)C(=O)C=CC1=O` came in with a logP in [13] of 1.23.

In the case of `CCCCc1ccc(O)cc1`, in data set [24], the logP came out at 3.65.

`O=C(O)COc1ccc(Oc2ccc(Cl)cc2Cl)cc1` had a logD in [35] of 4.51.

Molecule `CCC(Cl)(CC)C(=O)NC(N)=O` showed a log partition coefficient (logP) in data set [34] of 1.4.

In the case of `CC(=O)c1ccccc1`, in data set [26], the logP is 1.71.

The molecule `O=c1[nH]c(=O)n([C@H]2CC(F)[C@@H](CO)O2)cc1I` (some centres not stated) displayed a logD in [25] of -0.03.

In [35], `O=C(O)COc1cc(Cl)cc(Cl)c1` gave a log distribution coefficient (logD) of 2.84.

As for `COCC(=O)Cn1ccnc1[N+](=O)[O-]`, in data set [32], the logP was -0.26.

In data set [33], `O=C1CCCCCCN1` yielded a logP of 0.24.

Regarding `Cc1ccccc1OCC(=O)O`, in [27], the logD came to 1.96.

The molecule `CC(O)(C(=O)O)c1ccccc1` (configuration not stated) registered a logD in data set [31] of 0.83.

With `CS(=O)(=O)c1cccc(NC(N)=O)c1`, the logD in data set [2] was -0.1.

In the case of `CON=C(C#N)C(=O)N[C@@H](CS(C)(=O)=O)C(=O)O`, in [30], the logP is -0.73.

Molecule `CCc1ccc(C(=O)O)cc1` yielded a logP in data set [7] of 2.85.

The molecule `CN(C)c1nc(Cl)nc(N(C)C)n1` yielded a logD in data set [11] of 2.31.

`Cc1ncc([N+](=O)[O-])n1CCS(=O)(=O)C(C)C` came in with a logP in data set [8] of 0.13.

In turn, `CN1CC(O)N(c2nnc(C(C)(C)C)s2)C1=O` (configuration not stated) yielded a logP in data set [16] of 1.45.
